Reference: US5618829A, “Tyrosine kinase inhibitors and benzoylacrylamide derivatives” (Mitsubishi Chemical Corporation, priority 1993, dated 1997)
Like-named read-outs stand apart in the source and are kept apart here.

Assays:
KB cell = experiment: Cancer cell growth inhibitory activity (KB cells, MTT); type: cell-based; settings: Homo sapiens, 72 h, read-out: Inhibitory activity (IC50, μM) Cancer cell growth
Experimental: (§1) The compounds of the invention were evaluated their tyrosine kinase inhibitory activities with partially purified EGF (epidermal cell growth factor) receptor preparation and cell growth inhibitory activity with human cancer cells.
Cancer Cell Growth Inhibitory Activity
Accordingly, the KB cell was used to evaluate the effect of test compounds on the growth of cultured cancer cells.
KB cells were plated on a 96-well dish (2.5×10^3 cell/well) and cultured for 24 hours at 37° C. under 5% CO2 atmosphere in DMEM:F12 (1:1) medium containing 10% FCS, 50 μg/ml penicillin, and 50 μg/ml streptomycin. To the culture medium was added a test compound dissolved in DMSO (DMSO final concentration<0.1%), and the cells were cultured for three days under the same conditions. The test compound was exchanged every 24 hours together with the culture medium.
The amount of living cells were measured by calorimetric determination at wave lengths of 550 nm and 650 nm after developing colour by MTT reagent, in accordance with the method of Michael C.
Cancer cell growth inhibitory activity (CCGIA) was determined according to the following equation.
Simbols "a" and "b" represent the colorimetric values determined in the cancer cell growth assay with and without the test compounds, respectively.

EGF receptor = target: T1, EGF receptor (Homo sapiens, UniProt P00533); experiment: Tyrosine kinase inhibitory activity (partially purified EGF receptor from A431 cell membrane fraction, RR-SRC peptide substrate); type: biochemical; settings: partially purified EGF receptor from A431 cells, 100 ng EGF, 10 μM γ-32P-ATP, 30 minutes under ice-cooling
T1 construct: The cell membrane fraction, a partially purified EGF receptor, was used as an enzyme source; endogenous in cells; host or cells: A431 (human epidermoid carcinoma), cell membrane fraction
T1 sequence (P00533 25-1210): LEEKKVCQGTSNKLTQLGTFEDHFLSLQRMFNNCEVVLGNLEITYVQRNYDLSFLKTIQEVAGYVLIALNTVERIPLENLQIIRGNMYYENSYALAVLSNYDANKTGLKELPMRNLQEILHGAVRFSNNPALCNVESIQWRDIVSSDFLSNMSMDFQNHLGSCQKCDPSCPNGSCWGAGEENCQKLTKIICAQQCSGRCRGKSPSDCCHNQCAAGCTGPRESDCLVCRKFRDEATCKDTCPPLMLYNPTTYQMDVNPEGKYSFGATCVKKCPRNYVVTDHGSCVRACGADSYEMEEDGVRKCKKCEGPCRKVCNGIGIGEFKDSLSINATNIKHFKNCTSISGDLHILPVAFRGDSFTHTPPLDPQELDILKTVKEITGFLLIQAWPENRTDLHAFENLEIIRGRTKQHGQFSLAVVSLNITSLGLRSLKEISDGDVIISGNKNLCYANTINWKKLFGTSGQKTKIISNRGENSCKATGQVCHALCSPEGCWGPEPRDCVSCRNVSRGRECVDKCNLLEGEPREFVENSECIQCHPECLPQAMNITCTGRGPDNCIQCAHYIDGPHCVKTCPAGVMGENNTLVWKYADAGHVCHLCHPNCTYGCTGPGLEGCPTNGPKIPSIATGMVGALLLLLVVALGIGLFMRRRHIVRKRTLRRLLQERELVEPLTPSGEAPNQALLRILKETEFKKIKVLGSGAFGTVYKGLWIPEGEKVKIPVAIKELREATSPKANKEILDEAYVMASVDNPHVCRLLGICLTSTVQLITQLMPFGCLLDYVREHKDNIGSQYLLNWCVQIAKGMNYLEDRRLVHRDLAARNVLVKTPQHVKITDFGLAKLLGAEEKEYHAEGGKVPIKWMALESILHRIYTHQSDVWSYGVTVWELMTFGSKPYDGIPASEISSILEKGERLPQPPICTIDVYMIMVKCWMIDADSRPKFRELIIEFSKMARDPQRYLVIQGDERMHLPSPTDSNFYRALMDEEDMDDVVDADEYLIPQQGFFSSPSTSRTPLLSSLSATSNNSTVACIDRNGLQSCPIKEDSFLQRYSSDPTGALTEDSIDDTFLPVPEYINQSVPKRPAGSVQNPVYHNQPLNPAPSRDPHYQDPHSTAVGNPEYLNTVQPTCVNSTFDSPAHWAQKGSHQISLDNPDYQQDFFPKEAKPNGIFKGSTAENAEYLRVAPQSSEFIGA
Experimental: as §1
Tyrosine Kinase Inhibitory Activity
Tyrosine kinase inhibitory activities of the compounds of the invention were determined as the inhibitory activities of the compounds added into the tyrosine kinase activity assay system.
The method employed is detailed below.
A431 cells were cultured in Dulbecco's modified Eagles medium (DMEM) containing 10% fetal calf serum (FCS) at 37° C. under 5% CO2 atmosphere. The cultured cells were homogenated in a solution containing 10 mM N-2-hydroxyethylpiperazino-N'-2-ethane sulfonate buffer (pH 7.4), 0.25M sucrose, and 0.1 mM EDTA, and centrifuged at 3000 xg for 5 minutes. The supernatant was then centrifuged at 10000 xg for 30 minutes to obtain A431 cell membrane fraction. The cell membrane fraction, a partially purified EGF receptor, was used as an enzyme source. A test compound dissolved in dimethylsulfoxide (DMSO) was added to a reaction mixture containing 15 mM Hepes buffer (pH 7.7), 2 mM MnCl2, 10 μM ZnSO4, 50 μM Na3 VO4 and the partially purified EGF receptor preparation (10-15 μg). […] The mixture was allowed to react under […] for 30 minutes, and the reaction was stopped by addition of 10 mg/ml bovine serum albumin and 20% trichloroacetic acid. The reaction mixture was left to stand under ice-cooling for 30 minutes. The mixture was centrifuged at 5000 xg for two minutes, and an aliquot of the supernatant was adsorbed on P81 phosphocellulose filter. The filter was dipped in 30% aqueous acetic acid for 15 minutes for fixation and then washed with 15% acetic acid. The washing was repeated four times. The radioactivity of ^32 P retained on the phosphocellulose filter was counted with liquid scintillation counter.
Tyrosine kinase inhibitory activity (TKIA) was determined according to the following equation:
TKIA(%)={1-(B-C)/(A-C)}×100
The sympols "A", "B" and "C" represent the radioactivities determined in tyrosine kinase assays with test compounds, without a test compound, and without both a test compound and EGF, respectively.

[1] = KB cells, three days, 37° C., MTT

IC50 (KB cell; [1]) [µM]	Structure (SMILES)	IC50 (KB cell; KB) [µM]	IC50 (EGF receptor) [µM]
	COc1ccc(C(=O)/C=C/C(N)=O)cc1OC [Compound 2]	0.92	0.32
	COc1ccc(C(=O)/C=C/C(=O)NCc2ccccc2)cc1OC [Compound 19]	0.97	0.79
	COc1ccc(C(=O)/C=C/C(=O)NC2CCCCC2)cc1OC [Compound 45]	0.22	1
	COc1ccc(C(=O)/C=C/C(=O)Nc2ccccc2)cc1 [Compound 58]	0.34	2.2
	COc1ccc(C(=O)/C=C/C(=O)Nc2ccccc2)cc1OC [Compound 59]	0.45	0.54
	O=C(/C=C/C(=O)c1ccc(O)c(O)c1)Nc1ccccc1 [Compound 60]	1.85	1
2	COc1cc(C(=O)/C=C/C(=O)Nc2ccccc2)ccc1O [Compound 61]		1.5
	COc1cc(C(=O)/C=C/C(=O)Nc2ccccc2)ccc1OC(F)F [Compound 64]	1.1	1.5
	COc1cc(C(=O)/C=C/C(=O)Nc2ccccc2)ccc1OCc1ccccc1 [Compound 67]	0.58	13
	COc1ccc(C(=O)/C=C/C(=O)Nc2ccccc2Cl)cc1OC [Compound 71]	1.2	1.2
0.7	COc1ccc(C(=O)/C=C/C(=O)Nc2cccc(Cl)c2)cc1OC [Compound 74]		0.76
	O=C(/C=C/C(=O)c1ccc(O)c(O)c1)Nc1cccc(Cl)c1 [Compound 75]	1.25	4.3
	COc1ccc(C(=O)/C=C/C(=O)Nc2cccc(C)c2)cc1OC [Compound 83]	0.95	0.81
	COc1ccc(C(=O)/C=C/C(=O)NC(=O)c2ccccc2)cc1OC [Compound 110]	11.5	0.91
